Measured values published in patent US20200016159A1, “N3-CYCLICALLY SUBSTITUTED THIENOURACILS AND USE THEREOF” (Bayer Aktiengesellschaft, priority 2016, published 2020).
pIC50: −log10 of the molar value.

Molecular target: T1, human adenosine A2b receptor (Homo sapiens, UniProt P29275)
T1 sequence (P29275 1-332): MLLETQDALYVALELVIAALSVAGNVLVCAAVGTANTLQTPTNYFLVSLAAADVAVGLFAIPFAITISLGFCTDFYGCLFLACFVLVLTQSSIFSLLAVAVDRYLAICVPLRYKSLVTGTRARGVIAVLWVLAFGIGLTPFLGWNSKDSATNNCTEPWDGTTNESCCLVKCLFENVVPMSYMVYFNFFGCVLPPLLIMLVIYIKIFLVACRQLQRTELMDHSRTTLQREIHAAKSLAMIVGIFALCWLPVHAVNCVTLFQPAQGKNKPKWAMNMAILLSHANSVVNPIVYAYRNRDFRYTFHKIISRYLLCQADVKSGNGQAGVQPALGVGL
Assay: Cellular in vitro reporter gene test for A2b receptor activity (antagonism of NECA)
Type: cell-based
Parameters: expressed in transfected cells; host or cells: CHO-K1 (Chinese hamster ovary) with CRE-luciferase reporter
Conditions: recombinant CHO-K1 cells, CRE-luciferase reporter, co-incubation with EC50 concentration of NECA, 3 hours
In short: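 Antagonism measured as block of NECA-induced, cAMP/CRE-dependent luciferase expression in recombinant A2b CHO-K1 cells. NECA used at the EC50 set in a pre-experiment on each test day; luminescence detected after 3 h. Reported as IC50, partly averaged and rounded to two significant figures.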

SMILES: Cc1c(Cn2nc[nH]c2=O)sc2c1c(=O)n([C@H]1C[C@@H]1C)c(=O)n2CC1CC1(F)F (stereo partly drawn) [Example 326, 1-[(2,2-Difluorocyclopropyl)methyl]-5-methyl-3-[(1S,2S)-2-methylcyclopropyl]-6-[(5-oxo-4,5-dihydro-1H-1,2,4-triazol-1-yl)methyl]thieno[2,3-d]pyrimidine-2,4(1H,3H)-dione]
- pIC50: 7.77

SMILES: Cc1c(CN2CCNC2=O)sc2c1c(=O)n(C1CC1C)c(=O)n2CCC(F)(F)F (single isomer, unassigned) [Example 240, 5-Methyl-3-(2-methylcyclopropyl)-6-[(2-oxoimidazolidin-1-yl)methyl]-1-(3,3,3-trifluoropropyl)thieno[2,3-d]pyrimidine-2,4(1H,3H)-dione]
- pIC50: 8.62

SMILES: Cc1c(CN2CCNC2=NC#N)sc2c1c(=O)n(C1CC1C)c(=O)n2CCOC(F)(F)F (single isomer, unassigned) [Example 265, [1-({5-Methyl-3-(2-methylcyclopropyl)-2,4-dioxo-1-[2-(trifluoromethoxy)ethyl]-1,2,3,4-tetrahydrothieno[2,3-d]pyrimidin-6-yl}methyl)imidazolidin-2-ylidene]cyanamide]
- pIC50: 8.89

SMILES: COCCn1c(=O)n(C2CC(F)(F)C2)c(=O)c2c(C)c(Cn3nc[nH]c3=O)sc21 [Example 129, 3-(3,3-Difluorocyclobutyl)-1-(2-methoxyethyl)-5-methyl-6-[(5-oxo-4,5-dihydro-H-1,2,4-triazol-1-yl)methyl]thieno[2,3-d]pyrimidine-2,4(1H,3H)-dione]
- pIC50: 6.55

SMILES: Cc1c(CN2CCNC(=O)C2=O)sc2c1c(=O)n(C1(C)CCC1)c(=O)n2CCC(F)(F)F [Example 137, 6-[(2,3-Dioxopiperazin-1-yl)methyl]-5-methyl-3-(1-methylcyclobutyl)-1-(3,3,3-trifluoropropyl)thieno[2,3-d]pyrimidine-2,4(1H,3H)-dione]
- pIC50: 7.11

SMILES: COCCn1c(=O)n(C2CC(F)(F)C2)c(=O)c2c(C)c(CN3CCNC3=NC(=O)OC)sc21 [Example 127, Methyl [1-{[3-(3,3-difluorocyclobuty)-1-(2-methoxyethyl)-5-methyl-2,4-dioxo-1,2,3,4-tetrahydrothieno[2,3-d]pyrimidin-6-yl]methyl}imidazolidin-2-ylidene]carbamate]
- pIC50: 8.00

SMILES: Cc1c(CN2CCNC2=O)sc2c1c(=O)n(C1(C)CC1)c(=O)n2C[C@@H]1CCCO1 [Example 82, 5-Methyl-3-(1-methylcyclopropyl)-6-[(2-oxoimidazolidin-1-yl)methyl]-1-[(2S)-tetrahydrofuran-2-ylmethyl]thieno[2,3-d]pyrimidine-2,4(1H,3H)-dione]
- pIC50: 7.11

SMILES: Cc1c(CN2CCNC2=O)sc2c1c(=O)n(C1CC1C)c(=O)n2CCSC(F)(F)F (racemic) [Example 279, 5-Methyl-3-(2-methylcyclopropyl)-6-[(2-oxoimidazolidin-1-yl)methyl]-1-{2-[(trifluoromethyl)sulfanyl]ethyl}thieno[2,3-d]pyrimidine-2,4(1H,3H)-dione]
- pIC50: 8.80

SMILES: Cc1c(CN2CCNC2=O)sc2c1c(=O)n(C1CC1C)c(=O)n2CCCC(F)(F)F (racemic) [Example 242, 5-Methyl-3-(2-methylcyclopropyl)-6-[(2-oxoimidazolidin-1-yl)methyl]-1-(4,4,4-trifluorobutyl)thieno[2,3-d]pyrimidine-2,4(1H,3H)-dione]
- pIC50: 8.68

SMILES: Cc1c(Cn2nc[nH]c2=O)sc2c1c(=O)n(C1(C)CC1)c(=O)n2CC1CC1(F)F (single isomer, unassigned) [Example 68, 1-[(2,2-Difluorocyclopropyl)methyl]-5-methyl-3-(1-methylcyclopropyl)-6-[(5-oxo-4,5-dihydro-1H-1,2,4-triazol-1-yl)methyl]thieno[2,3-d]pyrimidine-2,4(1H,3H)-dione]
- pIC50: 6.80

SMILES: COCCn1c(=O)n(C2(C(F)(F)F)CC2)c(=O)c2c(C)c(CN3CCNC3=O)sc21 [Example 85, 1-(2-Methoxyethyl)-5-methyl-6-[(2-oxoimidazolidin-1-yl)methyl]-3-[1-(trifluoromethyl)cyclopropyl]thieno[2,3-d]pyrimidine-2,4(1H,3H)-dione]
- pIC50: 6.51
